We go through one compound from patent US12129255B2, “Pyrido [2,3-d]pyrimidine derivatives as inhibitors of human immunodeficiency virus replication” (VIIV HEALTHCARE UK (No. 5) LIMITED, priority 2019, dated 2024).

One data set concerns recombinant NL4-3 virus. Nature of the data set: Antiviral activity toward recombinant NL4-3 Renilla luciferase virus in MT-2 cells. The class given is cell-based, HIV. The procedure:
MT-2 cells, 293T cells and the proviral DNA clone of NL4-3 virus were obtained from the NIH AIDS Research and Reference Reagent Program. MT-2 cells were propagated in RPMI 1640 media supplemented with 10% heat inactivated fetal bovine serum (FBS), […]. The 293T cells were propagated in DMEM media supplemented with 10% heat inactivated FBS, […]. A recombinant NL4-3 proviral clone, in which a section of the nef gene was replaced with the Renilla luciferase gene, was used to make the reference virus used in these studies. The recombinant virus was prepared through transfection of the recombinant NL4-3 proviral clone into 293T cells using Transit-293 Transfection Reagent from Mirus Bio LLC (Madison, WI). Supernatant was harvested after 2-3 days and the amount of virus present was titered in MT-2 cells using luciferase enzyme activity as a marker by measuring luciferase enzyme activity. Luciferase was quantitated using the EnduRen Live Cell Substrate from Promega (Madison, WI). Antiviral activities of compounds toward the recombinant virus were quantified by measuring luciferase activity in MT-2 cells infected for 4-5 days with the recombinant virus in the presence of serial dilutions of the compound. […]

The nature of data set [1]: Metabolism in liver microsomes (monkey). Type of data set: in vitro ADME. The procedure: Liver microsomes from human, rat dog and monkey were thawed and diluted to a final concentration of 1 mg/mL in 100 mM potassium phosphate buffer (pH 7.4). Test compounds and controls were prepared at 100× final concentration of 1 μM in 1:1 acetonitrile:water (v/v) and aliquoted into microsomal mixture. The mixture was preincubated at 37° C. in a shaking water bath for 10 minutes. The incubations were performed in duplicate. Three controls were included in the incubations; warfarin, phenacetin, and verapamil. After the preincubation, the reaction was initiated with NADPH at a final concentration of 1 mM. At 0, 5, 15, 30, 45 and 60 minutes, 25 μL of sample was removed and quenched with 300 μL of acetonitrile containing internal standard (Telmisartan). The samples were vortexed for 5 minutes at 1200 rpm and then centrifuged at 4000 rpm for 10 min. A 100 μL aliquot of supernatant was diluted three-fold with water and injected on an Exion LC 4500 Triple Quad LC-MS/MS system. Results were reported as a percentage of parent remaining and was calculated from peak area ratios of test compound remaining after at each time point and compared to time zero incubation.
In general terms: Liver microsomes are vesicles of endoplasmic reticulum, rich in cytochrome P450 enzymes.

Data set [2] can be described thus: IV pharmacokinetics in rat. The class given is in vivo, Wistar Han Rats. The conditions noted are these: Wistar Han, plasma, IV 1 mg/kg. The procedure:
(§1) PK was investigated in male CD1 mice, Wistar Han Rats, Cynomolgus monkeys, and Beagle Dogs. Two groups of animals (N=3 per group) received test compound either as an intravenous (IV) dose (1 mg/kg) or by oral gavage (5 mg/kg solution and suspension). Drug was formulated in 90% PEG 400, 10% ethanol for IV administration and in 90% PEG400, 5% ethanol for PO administration. Blood samples were collected at 0.167, 0.25, 0.5, 0.75, 1, 2, 3, 5, 7, 24, 48, 72 and 96 h post dose for IV; 0.25, 0.5, 0.75, 1, 2, 3, 5, 7, 24, 48, 72 and 96 h post dose for oral. Blood samples were collected into K3EDTA tubes and centrifuged at 1500 to 2000×g to obtain plasma. Plasma samples were stored at −20° C. until analysis by LC-MS/MS. All in vivo samples were injected on an Exion LC 4500 Triple Quad™ LC-MS/MS system where the column was maintained at 60° C. and the flow rate was 0.6 mL/min. All LC-MS/MS analysis parameters are captured electronically in the raw data files. Rat IV, Dog IV, Monkey IV, and Monkey PO PK samples were analyzed by General Analysis Method A. Mouse IV, Mouse PO, and Dog PO PK samples were analyzed by General Analysis Method B. Rat PO samples were analyzed by General Analysis Method C.
(§2) The PK parameters were obtained by non-compartmental analysis of plasma concentration vs time data (Phoenix WinNonlin v8.1). The peak concentration (Cmax) and time for Cmax (Tmax) were recorded directly from experimental observations. The area under the curve from time zero to the last sampling time [AUC0-T] and the area under the curve from time zero to infinity [AUCINF] were calculated using the linear-log trapezoidal rule. The total plasma clearance (CLTp), steady-state volume of distribution (VSS), apparent elimination half-life (T-HALF), and mean residence time (MRT) were estimated after IV administration. Estimations of AUC and T-HALF were made using a minimum of three timepoints with quantifiable concentrations. The absolute oral bioavailability (F) was estimated as the ratio of dose-normalized AUC values following oral and IV doses.

Data set [3] in a line: IV pharmacokinetics in dog. Type of data set: in vivo, Beagle Dogs. The procedure:
as §1, §2

The nature of data set [4]: Subcutaneous pharmacokinetics in rat. The class given is in vivo, Wistar Han Rats. The procedure:
Drug was formulated in 1% Kolliphor P188/1% PEG3350/3.5% Mannitol/94.5% Water and then administered to Wistar Han Rats as a subcutaneous injection at a dose of 20 mg/kg. Blood samples were collected at 0.167, 0.25, 0.5, 0.75, 1, 2, 3, 5, 7, 24, 48, 72, 96 h, and then every 3 days for up to 122 days. Blood samples were collected into K3EDTA tubes and centrifuged at 1500 to 2000×g to obtain plasma. Plasma samples were stored at −20° C. until analysis by LC-MS/MS.

The mark [5] stands for this setting: Beagle, plasma, Dog, IV 1 mg/kg.

Read-outs that look alike come from different tables or passages of the source.

Broadly, the EC50 is the midpoint of the concentration-response curve. For orientation: clearance means a measure of how efficiently the substance is removed, as volume per time. Broadly, the bioavailability is the share of a dose that reaches the circulation, judged against a reference dose that is usually intravenous.

Regarding `Cn1nc(NS(C)(=O)=O)c2c(Cl)ccc(-n3c([C@H](Cc4cc(F)cc(F)c4)NC(=O)Cn4nc(C(F)F)c5c4C(F)(F)[C@@H]4C[C@H]54)nc4nc(OCCC(F)(F)F)ccc4c3=O)c21` (atropisomer, axis not shown; (P)) [Example 1, N—((S)-1-((3P)-3-(4-chloro-1-methyl-3-(methylsulfonamido)-1H-indazol-7-yl)-4-oxo-7-(3,3,3-trifluoropropoxy)-3,4-dihydropyrido[2,3-d]pyrimidin-2-yl)-2-(3,5-difluorophenyl)ethyl)-2-((3bS,4aR)-3-(difluoromethyl)-5,5-difluoro-3b,4,4a,5-tetrahydro-1H-cyclopropa[3,4]cyclopenta[1,2-c]pyrazol-1-yl)acetamide], the EC50 was found to be 0.025 ± 0.008 nM in the data set on recombinant NL4-3 virus (Human immunodeficiency virus 1, NL43, MT2, read-out: EC50 (anti-HIV virology assay, revised average)) and 0.034 nM in the data set with recombinant NL4-3 virus (Human immunodeficiency virus 1, NL43, MT2, read-out: EC50 when initially tested). For the same compound, the “stability in monkey liver microsomes relative to Example 60.2” value in data set [1] (Example 1 versus Example 60.2) is “at least two times more stable”. Besides, the half-life at 1 μM in data set [1] (monkey, liver microsomes, pH 7.4, 1 μM compound, 1 mg/mL microsomes, NADPH, read-out: Monkey liver microsome T1/2) is more than 2 h. Besides, the clearance in data set [2] came to 2.64 mL/min/kg; in data set [3] (setting [5]) it was 1.68 mL/min/kg. In addition, the half-life in data set [2] is 17.4 h; in data set [3] (setting [5]) it was 8.6 h; in data set [4] (Wistar Han, plasma, SC 20 mg/kg, read-out: apparent half-life of compound in plasma (converted)) it was 312 h. In addition, the Vd came out at 3.34 L/kg in data set [2] (read-out: Vss) and 0.83 L/kg in data set [3] (Beagle, plasma, Dog, IV 1 mg/kg, read-out: Vss). Besides, the “clearance improved relative to Example 60.2” value in data set [3] (dog, IV) is recorded as 4.9 fold. Further, the “half-life in circulation higher than Example 60.2” value in data set [3] (dog, IV) was determined as 3.4 fold. In data set [4] (SC 20 mg/kg), the “% of the AUC extrapolated” value was 2.89%. For the same compound, the “time drug concentrations were maintained above 7 ng/mL for all animals” value in data set [4] (SC 20 mg/kg (FIG. 1)) is on record as 73 days. In data set [4] (Wistar Han, plasma, SC 20 mg/kg), the bioavailability came to 93%.
